# Assays:
# Type in all cases: biochemical
# p110α = molecular target: T1, p110α (Homo sapiens, UniProt P42336); assay: Luciferase-based luminescence assay (Kinase GLO), PI3K alpha; settings: 1.65 nM enzyme, 50 μM PIP2, 25 μM ATP, 1 hour
# T1 construct: purchased Invitrogen Corp., Carlsbad, Calif., USA
# Description: (§1) PI3K catalyzes the conversion of phosphatidylinositol-4,5-bisphosphate (PIP2) and ATP to phosphatidylinositol-3,4,5-trisphosphate (PIP3) and ADP. PI3K enzymatic activity was determined by measuring the amount of ATP consumed following the kinase reaction using a luciferase-based luminescence assay (Kinase GLO®, Promega Corp., Madison, Wis., USA) in a reaction buffer. The reaction buffer contained 50 mM HEPES, pH 7.5, 3 mM MgCl2, 1 mM EGTA, 100 mM NaCl, 0.03% CHAPS, and 2 mM DTT. Compounds for testing were dissolved and serially diluted in 100% DMSO (total of 10 concentrations), and then diluted 1:25 in the reaction buffer. PI3K enzyme solutions were prepared by diluting PI3K alpha (Invitrogen Corp., Carlsbad, Calif., USA) or PI3K delta (Millipore, Billerica, Mass., USA) in the reaction buffer to 4× the final assay concentration. The final concentrations of enzymes were 1.65 nM and 6.86 nM for PI3K alpha and PI3K delta, respectively. A substrate solution was prepared by mixing PIP2 and ATP in reaction buffer at 2× the final assay concentration. The final concentrations were 50 μM and 25 μM for PIP2 and ATP, respectively. To individual wells of white low volume 384-well assay plates were added 2.5 μl each of the compound and kinase mixtures, followed by shaking. The reactions were started by adding 5 μl of substrate mixture per well and shaking. The assay plates were covered and reactions were allowed to proceed for 1 hour (PI3K alpha) or 2 hours (PI3K delta), after which 10 μl of Kinase GLO® reagent was added. The plates were briefly centrifuged and incubated for 10 minutes, after which luminescence was measured using a FlexStation plate reader (Molecular Devices, Sunnyvale, Calif., USA). IC50 values were determined by curve fitting using Graphpad Prism software (Graphpad Software, La Jolla, Calif., USA).
# p110δ = molecular target: T2, p110δ (Homo sapiens, UniProt O00329); assay: Luciferase-based luminescence assay (Kinase GLO), PI3K delta; settings: for IC50: 6.86 nM enzyme, 50 μM PIP2, 25 μM ATP, 2 hours; for α/δ ratio: ratio of IC50 against PI3Kα over IC50 against PI3Kδ
# T2 construct: purchased Millipore, Billerica, Mass., USA
# T2 sequence (O00329 whole entry): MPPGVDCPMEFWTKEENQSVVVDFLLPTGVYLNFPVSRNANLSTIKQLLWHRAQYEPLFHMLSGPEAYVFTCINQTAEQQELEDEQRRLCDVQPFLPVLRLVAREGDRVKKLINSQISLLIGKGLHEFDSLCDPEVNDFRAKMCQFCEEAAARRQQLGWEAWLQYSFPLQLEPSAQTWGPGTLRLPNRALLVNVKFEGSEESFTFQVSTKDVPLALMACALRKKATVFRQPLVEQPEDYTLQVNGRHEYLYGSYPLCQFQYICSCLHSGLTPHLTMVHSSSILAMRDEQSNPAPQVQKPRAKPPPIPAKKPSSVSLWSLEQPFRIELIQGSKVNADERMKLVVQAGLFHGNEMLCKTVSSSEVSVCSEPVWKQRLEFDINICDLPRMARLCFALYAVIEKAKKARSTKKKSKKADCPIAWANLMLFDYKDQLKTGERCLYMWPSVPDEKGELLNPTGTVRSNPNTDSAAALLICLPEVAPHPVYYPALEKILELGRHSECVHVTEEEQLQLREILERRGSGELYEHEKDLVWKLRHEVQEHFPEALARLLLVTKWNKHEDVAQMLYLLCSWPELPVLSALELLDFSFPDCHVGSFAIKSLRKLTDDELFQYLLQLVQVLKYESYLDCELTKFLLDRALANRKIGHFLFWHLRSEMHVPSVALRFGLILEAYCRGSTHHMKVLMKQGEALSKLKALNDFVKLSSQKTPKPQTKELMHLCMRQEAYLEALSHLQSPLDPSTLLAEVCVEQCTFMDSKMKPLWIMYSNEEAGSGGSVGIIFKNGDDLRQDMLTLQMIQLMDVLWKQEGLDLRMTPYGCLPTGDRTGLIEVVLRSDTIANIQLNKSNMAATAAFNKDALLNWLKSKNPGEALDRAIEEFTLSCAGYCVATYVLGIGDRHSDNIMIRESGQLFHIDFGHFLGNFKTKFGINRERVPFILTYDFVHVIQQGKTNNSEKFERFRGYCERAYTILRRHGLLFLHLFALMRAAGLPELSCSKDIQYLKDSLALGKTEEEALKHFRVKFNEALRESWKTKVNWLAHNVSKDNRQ
# T2 sequence (P27986 whole entry partner): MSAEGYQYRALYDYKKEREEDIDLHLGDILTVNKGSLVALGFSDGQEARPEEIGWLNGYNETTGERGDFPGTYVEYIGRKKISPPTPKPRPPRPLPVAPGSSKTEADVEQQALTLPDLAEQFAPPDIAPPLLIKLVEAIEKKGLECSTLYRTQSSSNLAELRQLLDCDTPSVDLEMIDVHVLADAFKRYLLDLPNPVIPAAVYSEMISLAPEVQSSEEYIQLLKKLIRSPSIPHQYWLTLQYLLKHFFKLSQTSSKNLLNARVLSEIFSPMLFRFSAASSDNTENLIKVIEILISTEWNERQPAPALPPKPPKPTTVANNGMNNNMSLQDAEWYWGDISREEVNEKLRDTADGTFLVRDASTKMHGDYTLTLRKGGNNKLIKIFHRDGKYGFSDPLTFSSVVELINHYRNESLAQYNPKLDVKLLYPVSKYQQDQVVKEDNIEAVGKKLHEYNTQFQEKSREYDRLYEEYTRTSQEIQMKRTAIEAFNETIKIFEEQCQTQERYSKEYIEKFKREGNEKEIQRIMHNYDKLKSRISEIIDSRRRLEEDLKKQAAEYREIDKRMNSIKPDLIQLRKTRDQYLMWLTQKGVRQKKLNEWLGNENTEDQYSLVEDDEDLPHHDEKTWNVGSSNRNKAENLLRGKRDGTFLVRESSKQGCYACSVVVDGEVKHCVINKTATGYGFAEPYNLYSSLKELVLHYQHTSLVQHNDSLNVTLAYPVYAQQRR
# Description: as §1
# p110β = p110β (Homo sapiens, UniProt P42338); assay: Luciferase-based luminescence assay, p110β
# Sequence of p110β (P42338 whole entry, species assumed): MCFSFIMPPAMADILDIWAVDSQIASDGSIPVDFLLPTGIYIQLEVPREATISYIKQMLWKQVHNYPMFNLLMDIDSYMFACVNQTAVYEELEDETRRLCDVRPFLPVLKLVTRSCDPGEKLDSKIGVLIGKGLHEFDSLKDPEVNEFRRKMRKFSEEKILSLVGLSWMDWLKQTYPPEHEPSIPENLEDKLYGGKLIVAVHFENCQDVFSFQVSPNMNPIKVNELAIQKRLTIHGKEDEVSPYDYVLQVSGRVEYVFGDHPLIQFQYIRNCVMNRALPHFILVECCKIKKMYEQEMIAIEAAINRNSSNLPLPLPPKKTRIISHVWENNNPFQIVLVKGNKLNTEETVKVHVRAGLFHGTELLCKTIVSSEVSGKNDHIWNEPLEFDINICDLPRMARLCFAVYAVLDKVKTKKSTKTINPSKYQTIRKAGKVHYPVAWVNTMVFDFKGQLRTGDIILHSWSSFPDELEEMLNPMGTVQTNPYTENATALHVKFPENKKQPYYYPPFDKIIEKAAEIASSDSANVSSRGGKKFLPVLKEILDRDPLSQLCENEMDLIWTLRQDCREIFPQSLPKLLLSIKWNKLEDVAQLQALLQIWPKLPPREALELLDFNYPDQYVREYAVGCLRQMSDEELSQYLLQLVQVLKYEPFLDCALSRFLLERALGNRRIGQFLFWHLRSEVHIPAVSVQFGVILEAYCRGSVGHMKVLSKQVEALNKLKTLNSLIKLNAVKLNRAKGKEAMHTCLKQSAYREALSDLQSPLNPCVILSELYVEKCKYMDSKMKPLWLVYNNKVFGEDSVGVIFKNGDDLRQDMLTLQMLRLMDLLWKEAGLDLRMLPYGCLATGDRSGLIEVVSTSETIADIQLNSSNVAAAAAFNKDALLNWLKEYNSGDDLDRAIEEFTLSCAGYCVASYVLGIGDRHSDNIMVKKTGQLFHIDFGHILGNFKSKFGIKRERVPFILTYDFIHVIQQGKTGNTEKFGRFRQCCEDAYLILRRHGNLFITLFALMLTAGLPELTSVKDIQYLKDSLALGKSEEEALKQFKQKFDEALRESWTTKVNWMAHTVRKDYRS
# Sequence of p110β (P27986 whole entry partner, species assumed): as the sequence (P27986 whole entry partner) above
# p110γ = p110γ (Homo sapiens, UniProt P48736); assay: Luciferase-based luminescence assay, p110γ
# Sequence of p110γ (P48736 whole entry, species assumed): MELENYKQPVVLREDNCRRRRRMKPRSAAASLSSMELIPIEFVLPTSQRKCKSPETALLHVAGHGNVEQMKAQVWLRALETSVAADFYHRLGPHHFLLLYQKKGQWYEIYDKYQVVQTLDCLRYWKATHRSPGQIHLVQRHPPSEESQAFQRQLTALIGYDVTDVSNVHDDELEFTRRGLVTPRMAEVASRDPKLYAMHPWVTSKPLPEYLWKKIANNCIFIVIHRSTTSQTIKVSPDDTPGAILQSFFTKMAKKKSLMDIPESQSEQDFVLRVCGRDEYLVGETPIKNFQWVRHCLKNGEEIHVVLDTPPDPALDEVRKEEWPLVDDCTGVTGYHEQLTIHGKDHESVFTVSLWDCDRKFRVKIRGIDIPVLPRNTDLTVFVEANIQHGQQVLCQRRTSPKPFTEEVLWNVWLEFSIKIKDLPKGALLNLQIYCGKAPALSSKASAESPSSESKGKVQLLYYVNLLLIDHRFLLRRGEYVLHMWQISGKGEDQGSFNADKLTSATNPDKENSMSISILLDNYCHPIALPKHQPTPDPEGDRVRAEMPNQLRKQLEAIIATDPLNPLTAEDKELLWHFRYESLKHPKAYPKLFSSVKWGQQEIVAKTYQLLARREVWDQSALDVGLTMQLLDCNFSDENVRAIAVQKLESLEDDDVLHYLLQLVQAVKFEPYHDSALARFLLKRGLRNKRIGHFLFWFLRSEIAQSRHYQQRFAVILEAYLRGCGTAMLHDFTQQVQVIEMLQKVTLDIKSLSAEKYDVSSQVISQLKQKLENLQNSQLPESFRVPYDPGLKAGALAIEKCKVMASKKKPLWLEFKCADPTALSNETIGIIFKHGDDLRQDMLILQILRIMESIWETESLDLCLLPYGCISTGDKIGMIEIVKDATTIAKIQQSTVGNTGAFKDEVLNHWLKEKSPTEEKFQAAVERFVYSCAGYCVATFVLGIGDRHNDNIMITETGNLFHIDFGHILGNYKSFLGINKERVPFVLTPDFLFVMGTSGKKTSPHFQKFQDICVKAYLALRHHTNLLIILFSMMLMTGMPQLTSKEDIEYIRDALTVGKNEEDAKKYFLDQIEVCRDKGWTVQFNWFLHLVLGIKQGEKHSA
# mTOR = mTOR (Homo sapiens, UniProt P42345); assay: Luciferase-based luminescence assay, mTOR
# T1 sequence (P42336 whole entry): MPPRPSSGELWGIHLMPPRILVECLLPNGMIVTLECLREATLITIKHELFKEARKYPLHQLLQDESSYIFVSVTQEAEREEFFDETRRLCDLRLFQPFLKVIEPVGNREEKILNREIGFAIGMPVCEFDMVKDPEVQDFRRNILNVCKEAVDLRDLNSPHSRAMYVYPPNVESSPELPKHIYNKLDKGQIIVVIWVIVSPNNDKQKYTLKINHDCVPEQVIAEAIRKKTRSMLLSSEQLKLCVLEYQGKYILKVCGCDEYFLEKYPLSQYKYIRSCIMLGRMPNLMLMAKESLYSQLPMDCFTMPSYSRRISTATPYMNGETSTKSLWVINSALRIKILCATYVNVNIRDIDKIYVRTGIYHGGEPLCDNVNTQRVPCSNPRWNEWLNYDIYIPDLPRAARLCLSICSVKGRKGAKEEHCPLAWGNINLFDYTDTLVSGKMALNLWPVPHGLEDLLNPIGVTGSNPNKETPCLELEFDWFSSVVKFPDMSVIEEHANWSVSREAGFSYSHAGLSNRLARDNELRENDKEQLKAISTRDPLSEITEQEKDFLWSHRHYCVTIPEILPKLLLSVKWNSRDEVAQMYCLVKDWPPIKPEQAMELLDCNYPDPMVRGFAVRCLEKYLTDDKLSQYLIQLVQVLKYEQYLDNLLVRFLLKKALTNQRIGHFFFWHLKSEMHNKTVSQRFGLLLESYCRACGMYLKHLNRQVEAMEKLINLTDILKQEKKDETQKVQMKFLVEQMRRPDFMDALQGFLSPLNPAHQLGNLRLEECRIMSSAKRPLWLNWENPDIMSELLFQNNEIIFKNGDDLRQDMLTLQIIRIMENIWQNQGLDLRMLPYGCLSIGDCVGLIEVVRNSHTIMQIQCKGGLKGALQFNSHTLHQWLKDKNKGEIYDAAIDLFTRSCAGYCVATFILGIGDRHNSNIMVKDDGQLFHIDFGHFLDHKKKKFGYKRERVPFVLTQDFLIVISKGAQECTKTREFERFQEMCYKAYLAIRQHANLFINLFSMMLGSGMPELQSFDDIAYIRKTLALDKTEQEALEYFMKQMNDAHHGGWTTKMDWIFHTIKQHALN
# T1 sequence (P27986 whole entry partner): as the sequence (P27986 whole entry partner) above
SMILES,IC50 (p110α),IC50 (p110δ),IC50 (p110β),IC50 (p110γ),IC50 (mTOR),α/δ ratio (p110δ)
"FC(F)c1nc2ccccc2n1-c1nc(NC2(Cc3ccccc3)CCCC2)nc(N2CCOCC2)n1 [Compound A7, N-(1-benzylcyclopentyl)-4-(2-(difluoromethyl)-1H-benzo[d]imidazol-1-yl)-6-morpholino-1,3,5-triazin-2-amine]",> 500 nM,≤ 100 nM,100 to 200 nM,200 to 500 nM,> 500 nM,A′ (A′ represents a ratio of greater than 8)
"Cc1ccccc1CC1(Nc2nc(N3CCOCC3)nc(-n3c(C(F)F)nc4ccccc43)n2)CC1 [Compound A8, 4-(2-(difluoromethyl)-1H-benzo[d]imidazol-1-yl)-N-(1-(2-methylbenzyl)cyclopropyl)-6-morpholino-1,3,5-triazin-2-amine]",> 500 nM,100 to 200 nM,> 500 nM,> 500 nM,> 500 nM,B′ (B′ represents a ratio of no less than 4 but no greater than 8)
"FC(F)c1nc2ccccc2n1-c1nc(NC2(Cc3ccccc3Cl)CC2)nc(N2CCOCC2)n1 [Compound A10, N-(1-(2-chlorobenzyl)cyclopropyl)-4-(2-(difluoromethyl)-1H-benzo[d]imidazol-1-yl)-6-morpholino-1,3,5-triazin-2-amine]",> 500 nM,200 to 500 nM,> 500 nM,> 500 nM,> 500 nM,A′ (A′ represents a ratio of greater than 8)
"FC(F)c1nc2ccccc2n1-c1nc(NC2(Cc3ccccc3)CCC2)nc(N2CCOCC2)n1 [Compound A11, 4-(2-(difluoromethyl)-1H-benzo[d]imidazol-1-yl)-N-(1-benzylcyclobutyl)-6-morpholino-1,3,5-triazin-2-amine]",> 500 nM,≤ 100 nM,≤ 100 nM,200 to 500 nM,> 500 nM,A′ (A′ represents a ratio of greater than 8)

# More lines, main results first:
IC50 (p110α),IC50 (p110δ),IC50 (p110β),IC50 (p110γ),IC50 (mTOR),SMILES,α/δ ratio (p110δ)
200 to 500 nM,≤ 100 nM,,,,"FC(F)c1nc2ccccc2n1-c1nc(NC2(c3ccccc3)CC2)nc(N2CCOCC2)n1 [Compound A1, 4-(2-(difluoromethyl)-1H-benzo[d]imidazol-1-yl)-6-morpholino-N-(1-phenylcyclopropyl)-1,3,5-triazin-2-amine]",B′ (B′ represents a ratio of no less than 4 but no greater than 8)
> 500 nM,> 500 nM,,,,"FC(F)c1nc2ccccc2n1-c1nc(NC2(c3ccccc3)CCCC2)nc(N2CCOCC2)n1 [Compound A3, 4-(2-(difluoromethyl)-1H-benzo[d]imidazol-1-yl)-6-morpholino-N-(1-phenylcyclopentyl)-1,3,5-triazin-2-amine]",A′ (A′ represents a ratio of greater than 8)
> 500 nM,200 to 500 nM,,,,"FC(F)c1nc2ccccc2n1-c1nc(NC2(c3ccccc3)CCCCC2)nc(N2CCOCC2)n1 [Compound A4, 4-(2-(difluoromethyl)-1H-benzo[d]imidazol-1-yl)-6-morpholino-N-(1-phenylcyclohexyl)-1,3,5-triazin-2-amine]",A′ (A′ represents a ratio of greater than 8)
> 500 nM,≤ 100 nM,> 500 nM,> 500 nM,> 500 nM,"FC(F)c1nc2ccccc2n1-c1nc(NC2(Cc3ccccc3)CC2)nc(N2CCOCC2)n1 [Compound A5, N-(1-benzylcyclopropyl)-4-(2-(difluoromethyl)-1H-benzo[d]imidazol-1-yl)-6-morpholino-1,3,5-triazin-2-amine]",A′ (A′ represents a ratio of greater than 8)
> 500 nM,> 500 nM,> 500 nM,> 500 nM,> 500 nM,"FC(F)c1nc2ccccc2n1-c1nc(NC2(Cc3ccc(Br)cc3)CCCCC2)nc(N2CCOCC2)n1 [Compound A6, N-(1-(4-bromobenzyl)cyclohexyl)-4-(2-(difluoromethyl)-1H-benzo[d]imidazol-1-yl)-6-morpholino-1,3,5-triazin-2-amine]",B′ (B′ represents a ratio of no less than 4 but no greater than 8)
100 to 200 nM,100 to 200 nM,,,,"FC(F)c1nc2ccccc2n1-c1nc(NCc2ccccc2)nc(N2CCOCC2)n1 [Ref. 1, N-benzyl-4-(2-(difluoromethyl)-1H-benzo[d]imidazol-1-yl)-6-morpholino-1,3,5-triazin-2-amine, reference compound]",D′ (D′ represents a ratio of no greater than 2)

# Source: US20140088102A1, “(ALPHA-SUBSTITUTED CYCLOALKYLAMINO AND HETEROCYCLYLAMINO) PYRIMIDINYL AND 1,3,5-TRIAZINYL BENZIMIDAZOLES, PHARMACEUTICAL COMPOSITIONS THEREOF, AND THEIR USE IN TREATING PROLIFERATIVE DISEASES” (MEI PHARMA, INC., priority 2011, published 2014)
